Data on one compound can be found in patent US20230203081A1, “LINCOSAMIDE ANTIBIOTICS AND USES THEREOF” (President and Fellows of Harvard College, priority 2020, published 2023).

Series [1] relates to susceptible S. aureus and E. faecium strains. In words: Time-kill studies. Type of series: cell-based. On the procedure:
. Experiments were performed in duplicate following CLSI guidelines. An inoculum was prepared in Mueller-Hinton broth (MHB) containing 0.5-5×10^6 CFU/mL of test organism. Cultures were incubated at 37° C. in a shaker incubator at 110 rpm; a flask containing bacteria left unexposed to antibiotic was used as untreated control. At time points 0, 1, 3, 6, and 24 h following administration of antibiotic, bacterial counts were determined from each flask by serial dilution and plating on brain heart infusion agar (BD, Sparks, M D). Plates were incubated at 37° C. in incubators for 18-24 hours to determine bacterial counts. For streptococcal strains, blood agar plates (Tryptic Soy Agar with 5% Sheep Blood) were used for culturing the organisms (plates were incubated in the presence of 5% CO2), and time-kill studies were performed in media supplemented with 5% laked horse blood.

For series [2] the test system is unchanged. As to the kind of experiment: Post-antibiotic effect (PAE) and post-antibiotic sub-MIC effect (PA-SME). The format is cell-based. To be noted: following brief exposure; result in words. On the procedure: Post-antibiotic and post-antibiotic sub-MIC effect: Measurements of PAE and PA-SME durations were performed according to the methods described by Odenholt-Tornqvist and co-workers. […] A flask containing the unexposed bacterial strain was left as untreated control. Post-exposure, 100 μL of bacterial culture was diluted in 900 μL of sterile CaMHB; 100 μL of this diluted sample was immediately diluted further in 19.9 mL of sterile CaMHB (1:2,000 final dilution). […] Flasks were incubated at 37° C. in a shaker incubator (110 rpm). Samples (100 μL from each flask per time point) were collected at 0, 1, 3, 6, and 24 h from each flask and were serially diluted. From each dilution, 100 μL and 10 μL from each dilution were plated in duplicate on TSA plates. Plates were incubated overnight at 35° C. to determine the bacterial counts (limit of detection=20 CFU/plate or 2×10^2 CFU/mL). These counts were plotted against time with linear interpolation between time points to obtain the growth-kinetic curves. PAE and PA-SME were determined from these curves using the formulae: […]
where T is the time required for bacteria previously exposed to antibiotic to multiply 1 log10 above counts immediately following dilution, and C is the corresponding time required for untreated culture to do the same; and […]

Series [3] is described as follows: Mammalian cell growth inhibition (CellTiter-Blue cell viability assay). The following applies: human, A549, K562, HCT116 and HepG2 cells; mammalian cells, 72 h. Type of series: cell-based, human. The procedure:
(§1) Mammalian cell experiments: All compounds were dissolved in sterile DMSO to a stock concentration of 20 μM and aliquoted prior to freezing at −20° C. Aliquots were limited to a maximum of 3 freeze-thaw cycles. A549 (human pulmonary carcinoma; […]) cells were cultured in Dulbecco's Modified Eagle Medium (DMEM) supplemented with 10% fetal bovine serum. K562 (human chronic myelogenous leukemia; […]) cells were cultured in Iscove's Modification of DMEM (IMDM) media supplemented with 10% fetal bovine serum. HCT116 (human colorectal carcinoma; […]) cells were cultured in McCoy's 5a (Iwakata & Grace Modification) media supplemented with 10% fetal bovine serum. HepG2 (human hepatocellular carcinoma; […]) cells were cultured in Eagle's Minimum Essential Medium (EMEM) supplemented with 10% fetal bovine serum. All cell cultures were maintained in a 5% CO2 incubator at 37° C.
(§2) Growth inhibition was studied using the Promega CellTiter-Blue cell viability assay pursuant to the manufacturer's protocol. Briefly, cells were harvested, diluted, and mixed with the desired concentration of test compound. […] Plates were read on a SpectraMax i3 plate reader. GI50 values were determined by nonlinear regression using GraphPad Prism and represent the mean of at least three independent experiments.
(The colour change of resazurin is a common sign of viable cells or microbes.)

Series [4] has as its system mammalian cells (A549, K562, HCT116, HepG2). The series is described as above. The format is cell-based, human. The following applies: cell-culture safety profiling; result in words. The procedure: as §1, §2
Series [5] can be described thus: Microsomal intrinsic clearance (Clint,mic), species h. Further details: unit not given here. The format is in vitro ADME, human.
The next series has as its system ribosome. In words: Toeprinting analysis (primer extension inhibition) in cell-free translation, ermBL and ermDL templates. To be noted: 50 μM. Type of series: biochemical. On the procedure: Toeprinting analysis: The ermBL DNA template for toeprinting was generated by a 4-primer cross-over PCR using primers T7, NV1, ermB3-F and ermB3-R. The ermDL template was generated in the same way using primers RLR-fwd, RLR-rev, T7-SD-fwd and T7-SD-rev. In vitro translation in the PURExpress system (New England Biolabs) and toeprinting analysis were carried out as described previously. […]
Primer sequences used for toeprinting are as follows: T7 (TAATACGACTCACTATAGGG); NV1 (GGTTATAATGAATTTTGCTTATTAAC); ermB3-F (TAATACGACTCACTATAGGGCTTAAGTATAAGGAGGAAAAAATATGTTGGTATTCCAAATGCGTAATGTAGATAAAACATCTAC); ermB3-R (GGTTATAATGAATTTTGCTTATTAACGATAGAATTCTATCACTTATTTCAAAATAGTAGATGTTTTATCTACATTACG); RLR-fwd (GGAGGAAAAAATATGACACACTCAATGAGACTTCGTATTTTCCC); RLR-rev (CTATCACTTACAAAGTTGGGAAAATACGAAGTCTCATTGAG); T7-SD-fwd (TAATACGACTCACTATAGGGCTTAAGTATAAGGAGGAAAAAATATGACACACTCAATG); T7-SD-rev (GGTTATAATGAATTTTGCTTATTAACGATAGAATTCTATCACTTACAAAGTTGGGAAAAT).

Usually GI50 stands for the concentration at which growth is held to half of that of the control. Regarding `CSC1O[C@H]([C@H](NC(=O)[C@H]2NC[C@@H]3C[C@H](CC(C)C)CCO[C@H]32)[C@H](C)Cl)C(O)[C@@H](O)[C@H]1O` (stereo partly shown) [FSA-513018b], the cidality in time-kill result in series [1] (certain highly susceptible strains) is reported as “concentration-dependent cidality”. Further, the “mode of action in broth culture profiling (time-kill)” value in series [1] (result in words) is “bacteriostatic”. Also, the “post-antibiotic effect on bacterial growth” value in series [2] is on record as “prolonged effects on bacterial growth”. The compound also returned a GI50 at 72 h in series [3] of over 50 µM. Besides, the “toxicity toward mammalian cells” value in series [4] was “non-toxic”. Also, in series [5], the “Clint,mic” value is 34. The “translation arrest at the start codons of model ORFs (toeprinting)” value with ribosome is recorded as “firmly locked the ribosome at the start codons, allowing virtually no escape”.
